What all share (type): cell-based
Assay [1] deals with human mammary gland/duct cancer cell line BT-474. Briefly: In vitro antitumor/anticancer testing (CCK-8), BT-474. To be noted: Homo sapiens, BT-474, 48 h. How it is done: (§1) Each of Tea Product 1 and Conventional Tea Product obtained in section A of this example was used to prepare test tea samples according to the method described below. A proper amount of the respective tea product was added into sterile water to prepare a stock solution with a concentration of 100 mg/mL, followed by using a membrane filter with a pore size of 0.22 μm to conduct vacuum filtration and sterilization. The resulting stock solution was diluted with a respective complete medium shown in Table 3 below to form test tea samples with different concentrations. In other words, the thus obtained test tea samples to be used for treating a respective cancer/tumor cell line shown in Table 3 were prepared using the same complete medium as that for the respective cancer/tumor cell line. […] Specifically, each of the aforesaid commercially available agents was subjected to the method described below to prepare comparative test samples. A proper amount of a respective commercially available agent was dissolved in phosphate-buffered saline (PBS) to prepare a stock solution with a concentration of 5 mg/mL, followed by using a membrane filter with a pore size of 0.22 μm to conduct vacuum filtration and sterilization. The resulting stock solution was diluted with a respective complete medium shown in Table 3 below to form comparative test samples with different concentrations. To be specific, the comparative test samples prepared from the respective commercially available agent have the concentrations shown in Table 2 below. The thus obtained comparative test samples to be used for treating a respective cancer/tumor cell line shown in Table 3 were prepared using the same complete medium as that for the respective cancer/tumor cell line. […] The cultivation of each cancer/tumor cell line is described as follows. […] Afterwards, a cell suspension having a cell density of 1.0×10^4 cells/mL was prepared. […] As experimental groups, the tumor/cancer cells of each cell line were treated with the test tea samples prepared from one or more of the tea products and the comparative test samples prepared from one or more of the commercially available agents as obtained in section B of this example (for more detailed information about the tea product(s) and the commercially available product (s) used to treat each cell line, please see Table 4 below). To be specific, 6 to 10 test tea samples prepared from the same tea product and having different concentrations, as well as 6 to 10 comparative test samples prepared from the same commercially available agent and having different concentrations, were utilized to treat the tumor/cancer cells of each cell line. For each experimental group, 6 repetitions of tumor/cancer treatment were performed. For the control group, 100 μL of PBS was added to a well containing the medium and the cancer/tumor cells of the respective cell line. For the blank group, 100 μL of PBS was added to a well containing a complete medium the same as that used for cultivation of the cancer/tumor cells of the respective cell line. After the treatment described above, cultivation was conducted in an incubator (37° C., 100% relative humidity, 5% CO2) for 48 hours. Subsequently, the liquid containing the medium and the sample in the well was removed, and a respective complete medium (shown in Table 3 above) containing 10% CCK-8 (Cell Counting Kit-8)(Dojindo Molecular Technologies, Inc., Cat. No. CK04-13) was added. Cultivation was performed in an incubator (37° C.) for 2 to 4 hours, followed by gently shaking.

For assay [2], the system named is human prostate cancer cell line PC-3. Briefly: In vitro antitumor/anticancer testing (CCK-8), PC-3. The settings on record: Homo sapiens, 48 h. On the procedure: Each of Tea Product 1 and Conventional Tea Product obtained in section A of this example was used to prepare test tea samples according to the method described below. A proper amount of the respective tea product was added into sterile water to prepare a stock solution with a concentration of 100 mg/mL, followed by using a membrane filter with a pore size of 0.22 μm to conduct vacuum filtration and sterilization. The resulting stock solution was diluted with a respective complete medium shown in Table 3 below to form test tea samples with different concentrations. In other words, the thus obtained test tea samples to be used for treating a respective cancer/tumor cell line shown in Table 3 were prepared using the same complete medium as that for the respective cancer/tumor cell line.
Specifically, each of the aforesaid commercially available agents was subjected to the method described below to prepare comparative test samples. A proper amount of a respective commercially available agent was dissolved in phosphate-buffered saline (PBS) to prepare a stock solution with a concentration of 5 mg/mL, followed by using a membrane filter with a pore size of 0.22 μm to conduct vacuum filtration and sterilization. The resulting stock solution was diluted with a respective complete medium shown in Table 3 below to form comparative test samples with different concentrations. To be specific, the comparative test samples prepared from the respective commercially available agent have the concentrations shown in Table 2 below. The thus obtained comparative test samples to be used for treating a respective cancer/tumor cell line shown in Table 3 were prepared using the same complete medium as that for the respective cancer/tumor cell line.
The following cancer/tumor cells purchased from Chinese Academy of Sciences, Shanghai Institutes for Biological Sciences, Institute of Biochemistry and Cell Biology were used for in vitro antitumor/anticancer testing: human liver cancer cell line HepG2, human ovarian cancer cell line SK-OV-3, human cervical cancer cell line Hela, human lung cancer cell line A549, human glioblastoma cell line U-87MG, human mammary gland/duct cancer cell line BT-474, human prostate cancer cell line PC-3, human leukemia cell line HL-60, human gastric cancer cell line SMMC-7721, human colon cancer cell line HCT-116, human squamous cell carcinoma cell line A431, human leukemia cell line K562, human pancreatic cancer cell line PANC-1, and human gastric cancer cell line BGC-823.
The cultivation of each cancer/tumor cell line is described as follows. The cancer/tumor cancer cells were cultivated in the respective complete medium supplemented with 100 μg/mL penicillin and 100 μg/mL streptomycin in an incubator (37° C., 100% relative humidity, 5% CO2). When adherent cancer/tumor cells reached 80% confluence during the log-phase, cell detachment was conducted using 0.6 mL of 0.3% trypsin. Afterwards, a cell suspension having a cell density of 1.0×10^4 cells/mL was prepared. 100 μL of the cell suspension (i.e. 1000 cancer/tumor cells) was added into wells of a 96-well plate (Cat. No. 3599, Corning Costar), followed by cultivation in an incubator (37° C., 100% relative humidity, 5% CO2) for 24 hours.
As experimental groups, the tumor/cancer cells of each cell line were treated with the test tea samples prepared from one or more of the tea products and the comparative test samples prepared from one or more of the commercially available agents as obtained in section B of this example (for more detailed information about the tea product(s) and the commercially available product (s) used to treat each cell line, please see Table 4 below). To be specific, 6 to 10 test tea samples prepared from the same tea product and having different concentrations, as well as 6 to 10 comparative test samples prepared from the same commercially available agent and having different concentrations, were utilized to treat the tumor/cancer cells of each cell line. […]

In assay [3] the test system is human leukemia cell line HL-60. Briefly: In vitro antitumor/anticancer testing (CCK-8), HL-60. To be noted: Homo sapiens, HL-60, 48 h. How it is done:
as §1

The mark [4] stands for this setting: 0.125 μg/mL, read-out: Percent growth inhibition.
Where [5] appears, read: 0.25 μg/mL, read-out: Percent growth inhibition.
Setting [6] is: 0.5 μg/mL, read-out: Percent growth inhibition.
[7] abbreviates: 1 μg/mL, read-out: Percent growth inhibition.
Where [8] appears, read: 2 μg/mL, read-out: Percent growth inhibition.
Where [9] appears, read: 4 μg/mL, read-out: Percent growth inhibition.
[10] abbreviates: 8 μg/mL, read-out: Percent growth inhibition.
Where [11] appears, read: 16 μg/mL, read-out: Percent growth inhibition.
The mark [12] stands for this setting: 32 μg/mL, read-out: Percent growth inhibition.

SMILES strings stand for the structures. In brackets after ≈: the same amount, converted by molar mass.

A word on the inhibition: it is the change of the read-out against control, counted positive when it falls. For orientation: IC50 means the concentration at which inhibition is half-maximal. `COc1cccc2c1C(=O)c1c(O)c3c(c(O)c1C2=O)C[C@@](O)(C(=O)CO)C[C@@H]3O[C@H]1C[C@H](N)[C@@H](O)[C@H](C)O1` [Epirubicin]: in assay [1] (0.015625 μg/mL, read-out: Percent growth inhibition), the inhibition at 0.015625 µg/mL is 8.91%. Besides, in assay [1] (0.03125 μg/mL, read-out: Percent growth inhibition), the inhibition at 0.03125 µg/mL stood at 1.2%. In addition, the inhibition at 0.0625 µg/mL in assay [1] (0.0625 μg/mL, read-out: Percent growth inhibition) was determined as 2.5%. The values for the inhibition at 0.125 µg/mL in assay [1] (setting [4]) and in assay [2] (setting [4]) were 6.31% and 32.7%, respectively. The inhibition at 0.25 µg/mL in assay [1] (setting [5]) was 17.4%; in assay [2] (setting [5]), 48%. In addition, the inhibition at 0.5 µg/mL in assay [1] (setting [6]) came to 22.4%; in assay [2] (setting [6]) it was 55.1%. Besides, the figures for the inhibition at 1 µg/mL in assay [1] (setting [7]) and in assay [2] (setting [7]) were 33.4% and 66.1%, respectively. The inhibition at 2 µg/mL in assay [1] (setting [8]) is 53.5%; in assay [2] (setting [8]), 74%. Also, the inhibition at 4 µg/mL in assay [1] (setting [9]) is 72.6%; in assay [2] (setting [9]), 82%. In addition, the IC50 in assay [1] (read-out: IC50) amounted to 1.7 µg/mL (≈ 3.14 µM); in assay [2] (PC-3, read-out: IC50) it was 0.334 µg/mL (≈ 0.614 µM). Besides, the inhibition at 8 µg/mL in assay [2] (setting [10]) came to 82.8%. The inhibition at 16 µg/mL in assay [2] (setting [11]) worked out at 81.6%. The inhibition at 32 µg/mL in assay [2] (setting [12]) is 85.6%.

Take `COc1cc([C@@H]2c3cc4c(cc3[C@@H](O[C@@H]3O[C@@H]5CO[C@@H](C)O[C@H]5[C@H](O)[C@H]3O)[C@H]3COC(=O)[C@H]23)OCO4)cc(OC)c1O` [Etoposide]: in assay [3] (setting [4]), the inhibition at 0.125 µg/mL was 62.4%. Further, in assay [3] (setting [5]), the inhibition at 0.25 µg/mL turned out to be 73.6%. For the same molecule, the inhibition at 0.5 µg/mL in assay [3] (setting [6]) was found to be 82.9%. In addition, in assay [3] (setting [7]), the inhibition at 1 µg/mL was 97.8%. Also, the inhibition at 2 µg/mL in assay [3] (setting [8]) came out at 100%. In addition, the inhibition at 4 µg/mL in assay [3] (setting [9]) worked out at 100%. For the same molecule, the inhibition at 8 µg/mL in assay [3] (setting [10]) stood at 100%. Also, the inhibition at 16 µg/mL in assay [3] (setting [11]) came to 101%. The inhibition at 32 µg/mL in assay [3] (setting [12]) amounted to 100%. Moreover, the IC50 in assay [3] (read-out: IC50) stood at 0.0855 µg/mL (≈ 0.145 µM).

Values taken from patent US20180071354A1, “SELECTIVE BREEDING METHOD OF ANTITUMOR/ANTICANCER CAMELLIA SINENSIS STRAIN, AND TEA PRODUCT OF SUCH STRAIN” (FUJIAN AGRICULTURE AND FORESTRY UNIVERSITY, priority 2015, published 2018).
